By IC50 is commonly meant the concentration that inhibits the measured activity by half. High values mean weaker potency, low ones greater potency.

Structures are written as SMILES.

Results on one molecule are retold here after patent publication US20250388542A1, “ANALOGUES OF PENTAMIDINE AND USES THEREFOR” (Auransa Inc., priority 2018, published 2025).

The test system of data set [1] is HepG2. Description: CellTiter-Glo cell viability, liver cell lines, 8 days. It counts as cell-based. The following applies: Homo sapiens, 192 h; HepG2, 8 days. As for the experimental part:
(§1) The objective of this study is to investigate the effect of Compound 1 on cell viability of various types of liver cancer. Ten (10) different liver cancer cell lines were employed in the study. Each liver cell line shown in Table 4 was treated with Compound 1, pentamidine, as reference control, a standard of care (cisplatin) and culture medium contains 0.2% [v/v] DMSO vehicle control and IC50 values were obtained as described above. The raw data values from the CellTiter-Glo™ cell viability assay expressed in relative luminescence units were normalized to the vehicle for each individual plate, and any reduction in luminescence indicated a decrease in viability (%). The data was analyzed in GraphPad PRISM using a non-linear sigmoidal plot with variable slope (asymmetric four-point linear regression), and an IC50 value for each compound was generated. The experiment tested pentamidine, compound 1, and standard-of-care control Cisplatin in full growth media for 8 days. Cells were initially treated with the test compounds on Day 0, and the cells were then replenished with fresh compound dilutions on Day 3. Pentamidine, Compound 1, and cisplatin were tested at 9 concentration points; 100, 33.33, 11.11, 3.70, 1.23, 0.41, 0.14, 0.05, and 0.02 μM (final DMSO concentration=0.5%). In particular, the IC50 values of pentamidine and Compound 1 were 0.8 and 0.6 μM in Hep3B-luc, respectively.

The test system of data set [2] is MHCC97H. The data set is described as above. It is filed as cell-based. The following applies: Homo sapiens, 192 h. As for the experimental part: as §1
The subject of data set [3] is HUH7. Described as above. It counts as cell-based. To be noted: Homo sapiens, Huh-7, 192 h; HUH7, 8 days. As for the experimental part: as §1
Data set [4] has as its system HEP3B2.7-1. Described as above. It counts as cell-based. To be noted: HEP3B2.7-1, Table 4. As for the experimental part:
as §1

For data set [5], the system named is Hep3B. Described as above. It counts as cell-based. To be noted: Homo sapiens, 192 h. As for the experimental part:
as §1

Data set [6] has as its system SK-HEP-1. The description is as above. To be noted: Homo sapiens. It is filed as cell-based. As for the experimental part: as §1
Data set [7] concerns HUH1. The description is as above. It is filed as cell-based. The following applies: Homo sapiens, HuH-1, 192 h; HUH1, 8 days. As for the experimental part:
as §1

Data set [8] relates to HCCLM3. The description is as above. To be noted: Homo sapiens, 192 h; HCCLM3, 8 days. It is filed as cell-based. As for the experimental part: as §1
Data set [9] can be described thus: Tolerance in non-tumor bearing BALB/c nude mice. It is filed as in vivo. As for the experimental part:
The objective of this research is to assess Compound 1 tolerance in non-tumor bearing mice in BALB/c nude mice. Compound 1 exposure in plasma, liver, kidney, colon and bladder as well as serum-derived blood chemistries were tested.
Thirty-six (36) female BALB/c nude mice of age 6-8 weeks having body weight of around 19-23 g were kept in individual ventilation cages at constant temperature (20˜26° C.) and humidity (40-70%) with 3 animals per cage. Animals had free access to irradiation sterilized dry granule food and sterile drinking water during the entire study period.
After grouping, the animals were checked daily for morbidity and mortality. At the time of routine monitoring, the animals were measured for any effects on behavior such as mobility, food and water consumption, body weight gain/loss. Body weights were measured daily. Death and other clinical signs were recorded.
Animals from each group were tested and samples collected at two different time points for blood chemistry tests as well as compound concentration in plasma, kidney, liver, colon and bladder. The first sampling was performed right before the last dose (0 h) on Day 21; and the second sampling was performed 1 hour after the last dose (1 h) on day 21. Detailed descriptions for sampling methods are as follows: […]

For data set [10], the system named is HCC1954. Description: CellTiter-Glo cytotoxicity, cancer cell line panel / breast cancer study. It is filed as cell-based. To be noted: Homo sapiens; HCC1954, Ductal breast carcinoma. As for the experimental part: (§2) The objective of this study is to investigate potential cell killing effect of Compounds 1-15 on 3 cancer cell lines. 50% inhibition concentration (IC50) was determined for these compounds in various cancer cell lines using CellTiter-Glo™ luminescent cell viability assay at different compound concentrations. Each cell line (e.g., NCI-H209; NCI-H69; and SW1271) was treated with Compounds 1-15 and culture medium contains 0.2% [v/v] DMSO vehicle control. All the cells were cultured in the media supplemented with 10-20% fetal bovine serum at 37° C., 5% CO2 and 95% humidity.
(§3) The objective of this study is to investigate the effect of Compound 1 on cytotoxicity against 61 different types of cancer cell lines. IC50 were values were obtained using CellTiter-Glo™ as described above. Each cell line shown in Table 3 was treated with Compound 1, a standard chemotherapy drug, cisplatin, as reference control and culture medium contains 0.2% [v/v] DMSO vehicle control. All cancer cell lines were cultured in media supplemented with 10-20% fetal bovine serum at 37° C., 5% CO2 and 95% humidity.
(§4) The objective of this study is to investigate the effect of Compound 1 on cell viability of various types of breast cancer. Four different breast cancer cell lines were employed in the study. Each cell line shown in Table 5 was treated with Compound 1 and standard of care (cisplatin) and culture medium contains 0.2% [v/v] DMSO vehicle control and IC50 values were obtained as described above. The raw data values from the CellTiter-Glo™ cell viability assay expressed in relative luminescence units were normalized to the vehicle for each individual plate, and any reduction in luminescence indicated a decrease in viability (%). The data was analyzed in GraphPad PRISM using a non-linear sigmoidal plot with variable slope (asymmetric four-point linear regression), and an IC50 value for each compound was generated. The experiment tested pentamidine, compound 1, and standard-of-care control Cisplatin in full growth media for 8 days. Cells were initially treated with the test compounds on Day 0, and the cells were then replenished with fresh compound dilutions on Day 3. Pentamidine, Compound 1, and cisplatin were tested at 9 concentration points; 100, 33.33, 11.11, 3.70, 1.23, 0.41, 0.14, 0.05, and 0.02 μM (final DMSO concentration=0.5%).
In general terms: Cellular ATP, detected with luciferase, serves as a proxy for viable cell number.

The subject of data set [11] is DU4475. The data set is described as above. It is filed as cell-based. The following applies: Homo sapiens, DU-4475; DU4475, Breast carcinoma. As for the experimental part: as §2, §3, §4
The subject of data set [12] is ZR-75-1. The data set is described as above. It counts as cell-based. The following applies: Homo sapiens; ZR-75-1, Invasive ductal carcinoma. As for the experimental part: as §2, §3, §4
Data set [13] relates to MCF7. Described as above. It is filed as cell-based. To be noted: Homo sapiens; MCF7, Invasive ductal carcinoma. As for the experimental part: as §2, §3, §4

Consider `N=C(N)c1ccc(OCCCCCOc2ccc(C(=N)N)nc2)cc1` [Compound 1, 5-(5-(4-carbamimidoylphenoxy)pentyloxy)picolinimidamide], for which the IC50 in data set [1] was found to be 310 nM; in data set [2] it was 5320 nM; in data set [3], 530 nM; in [4] it was 320 nM; in [5], 180 nM; in data set [6] (SK-HEP1, SK-HEP-1, first listing in Table 4), 1400 nM. Also, the IC50 worked out at 630 nM in data set [6] (SK-HEP1, SK-HEP-1, second listing in Table 4); 2950 nM in [7]; 9650 nM in [8]; 2710 nM in data set [10]; 240 nM in data set [11]; 1320 nM in data set [12]. The molecule also had an IC50 in data set [13] of 930 nM. The “tolerability, body weight loss” value in data set [9] (5 mg/kg QD, 10 mg/kg QD, 10 mg/kg Q2D and 20 mg/kg QD, PO, 21 days) was “well tolerated with no obvious body weight loss”. In addition, the “body weights compared with vehicle control group” value in [9] (40 mg/kg QD PO, day 20 and 21) is “lower in a statistically significant manner at day 20 and 21”.
